IC50 data for one compound are collected here from patent US6313116A, “Benzothiazole compounds and their therapeutic use” (Darwin Discovery, Ltd., priority 2000, dated 2001).

The structures appear in SMILES notation.

For the test, the target named is phosphodiesterase IV. In words: phosphodiesterase IV inhibitory activity (standard assay procedures). Format: biochemical. The settings on record: assay not given. From the text: The assays used to confirm the phosphodiesterase IV inhibitory activity of compounds of formula (I) are standard assay procedures as disclosed by Schilling et al, Anal. Biochem. 216:154 (1994), Thompson and Strada, Adv. Cycl. Nucl. Res. 8:119 (1979) and Gristwood and Owen, Br. J. Pharmacol. 87:91P (1986).

`CCc1nc2c(OC)ccc(C(=O)Nc3ccnn3C)c2s1` [Example 5, 2-Ethyl-4-methoxybenzothiazole-7-carboxylic acid (2-methyl-2H-pyrazol-3-yl)amide] showed an IC50 of 17 nM.
